Where two headings read alike, the source gives them in different places. Values belong to the molecule of their own block, whether it stands above or below them.
What was measured:
mice [1] = assay: Body temperature; assay type: in vivo, mouse
mouse A1AR [2] = target: T1, mouse A1AR (Mus musculus, UniProt Q60612); details: read-out: Ki, mouse A1AR, cited from earlier work
T1 sequence (Q60612 1-326): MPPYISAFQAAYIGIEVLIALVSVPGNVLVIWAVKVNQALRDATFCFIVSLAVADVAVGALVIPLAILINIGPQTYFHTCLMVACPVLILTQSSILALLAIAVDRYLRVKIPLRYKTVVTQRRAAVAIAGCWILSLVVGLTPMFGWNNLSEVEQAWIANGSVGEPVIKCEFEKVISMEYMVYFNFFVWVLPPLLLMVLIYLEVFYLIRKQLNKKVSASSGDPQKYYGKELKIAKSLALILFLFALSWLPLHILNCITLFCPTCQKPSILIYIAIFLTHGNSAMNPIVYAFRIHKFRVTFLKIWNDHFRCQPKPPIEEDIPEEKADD

mouse A3AR [3] = target: T2, mouse A3AR (Mus musculus, UniProt Q61618); details: cited from earlier work
T2 sequence (Q61618 1-319): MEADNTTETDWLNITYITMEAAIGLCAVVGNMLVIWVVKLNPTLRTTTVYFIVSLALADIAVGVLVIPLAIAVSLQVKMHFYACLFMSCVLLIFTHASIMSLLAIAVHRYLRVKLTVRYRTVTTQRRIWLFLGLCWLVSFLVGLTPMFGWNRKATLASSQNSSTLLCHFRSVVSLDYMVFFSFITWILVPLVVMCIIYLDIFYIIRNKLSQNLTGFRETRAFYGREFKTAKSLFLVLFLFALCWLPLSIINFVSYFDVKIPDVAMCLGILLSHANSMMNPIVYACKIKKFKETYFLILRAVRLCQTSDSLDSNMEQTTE

mouse A2AAR [4] = target: T3, mouse A2AAR (Mus musculus, UniProt Q60613); details: read-out: Ki, mouse A2AAR, 2006, cited from earlier work
T3 sequence (Q60613 whole entry): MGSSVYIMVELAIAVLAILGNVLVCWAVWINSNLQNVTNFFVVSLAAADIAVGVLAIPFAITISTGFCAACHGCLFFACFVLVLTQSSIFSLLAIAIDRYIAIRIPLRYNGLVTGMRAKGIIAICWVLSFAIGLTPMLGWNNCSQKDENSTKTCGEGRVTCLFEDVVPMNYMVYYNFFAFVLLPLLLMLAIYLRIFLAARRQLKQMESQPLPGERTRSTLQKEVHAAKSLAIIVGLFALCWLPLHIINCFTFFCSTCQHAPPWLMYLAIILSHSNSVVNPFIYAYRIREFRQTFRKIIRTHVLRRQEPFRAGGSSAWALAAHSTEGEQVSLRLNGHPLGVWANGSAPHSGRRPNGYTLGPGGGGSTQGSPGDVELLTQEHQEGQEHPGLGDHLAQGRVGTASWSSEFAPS

mouse A3AR [5] = target: T2, mouse A3AR; assay: Radioligand binding, recombinant mouse A3AR in HEK-293 membranes
mouse A1AR [6] = target: T1, mouse A1AR; assay: Radioligand binding, recombinant mouse A1AR in HEK-293 membranes
Human A2AAR [7] = target: T4, Human A2AAR (Homo sapiens, UniProt P29274); details: read-out: Ki, human A2AAR, cited from earlier work
T4 sequence (P29274 whole entry): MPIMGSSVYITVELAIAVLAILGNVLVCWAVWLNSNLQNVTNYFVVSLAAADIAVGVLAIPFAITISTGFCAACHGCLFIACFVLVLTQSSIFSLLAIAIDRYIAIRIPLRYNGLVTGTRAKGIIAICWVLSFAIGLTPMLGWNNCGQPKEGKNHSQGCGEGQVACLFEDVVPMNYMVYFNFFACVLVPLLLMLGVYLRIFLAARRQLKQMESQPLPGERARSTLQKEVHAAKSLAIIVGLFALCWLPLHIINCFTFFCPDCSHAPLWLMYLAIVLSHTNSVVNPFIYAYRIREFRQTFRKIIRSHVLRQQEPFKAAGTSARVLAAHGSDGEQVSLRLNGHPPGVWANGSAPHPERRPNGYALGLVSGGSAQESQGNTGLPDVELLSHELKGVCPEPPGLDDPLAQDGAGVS

Human A3AR [8] = target: T5, Human A3AR (Homo sapiens, UniProt P0DMS8); details: read-out: Ki, human A3AR; ref Franchetti et al, 2009; cited from earlier work
T5 sequence (P0DMS8 1-318): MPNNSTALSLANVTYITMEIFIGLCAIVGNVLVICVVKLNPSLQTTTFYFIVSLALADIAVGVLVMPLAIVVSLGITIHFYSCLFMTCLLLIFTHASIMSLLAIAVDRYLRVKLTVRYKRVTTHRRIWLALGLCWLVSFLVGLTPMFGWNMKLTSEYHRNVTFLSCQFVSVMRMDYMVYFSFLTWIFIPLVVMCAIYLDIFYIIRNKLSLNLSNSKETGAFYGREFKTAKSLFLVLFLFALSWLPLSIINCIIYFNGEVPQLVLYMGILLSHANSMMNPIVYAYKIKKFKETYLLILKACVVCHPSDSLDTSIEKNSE

mice [9] = assay: Temperature gradient; assay type: in vivo, mouse
mice [10] = assay: Indirect calorimetry; assay type: in vivo, mouse; details: i.p.
mouse = details: 0.5 mg/kg, ref Luongo et al, 2012; cited from earlier work
[11] = 500–3500 mg/kg, i.p.; ref Zhang et al, 2006; cited from earlier work
Human A2AAR [12] = target: T4, Human A2AAR; assay: Ligand binding affinity at human A2AAR
mouse A2AAR [13] = target: T3, mouse A2AAR; assay: Radioligand binding, recombinant mouse A2AAR in HEK-293 membranes; details: read-out: % inhibition at 10 µM, mouse A2AAR
Human A1AR = target: T6, Human A1AR (Homo sapiens, UniProt P30542); assay: Ligand binding affinity at human A1AR
T6 sequence (P30542 1-326): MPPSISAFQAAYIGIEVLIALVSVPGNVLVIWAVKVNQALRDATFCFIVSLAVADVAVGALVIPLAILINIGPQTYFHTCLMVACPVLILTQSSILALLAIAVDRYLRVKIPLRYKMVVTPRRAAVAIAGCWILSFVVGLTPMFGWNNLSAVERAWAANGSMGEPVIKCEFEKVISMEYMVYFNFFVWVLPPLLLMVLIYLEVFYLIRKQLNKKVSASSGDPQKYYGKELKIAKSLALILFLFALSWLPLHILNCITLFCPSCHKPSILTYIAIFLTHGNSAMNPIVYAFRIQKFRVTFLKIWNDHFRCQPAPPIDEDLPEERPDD

Human A3AR [14] = target: T5, Human A3AR; assay: Ligand binding affinity at human A3AR
[15] = C57BL/6J mice, 0.03–3 mg/kg, i.p.
[16] = C57BL/6J mice, 0.02–0.2 mg/kg, i.p., dose-dependent
[17] = 3 mg/kg, i.p., raclopride 1 mg/kg, data not shown
[18] = C57BL/6J mice, 0.3–10 mg/kg, i.p.
[19] = Adora3−/− mice, 3 mg/kg, before the Tb nadir
[20] = C57BL/6J mice, 100 µg/mouse (~3.3 mg/kg), i.c.v.

SMILES: OC[C@H]1O[C@@H](n2cnc3c(NC4CCCC4)ncnc32)[C@H](O)[C@@H]1O [CPA, N^6-cyclopentyladenosine]
Hypothermia in Adora1−/− mice vs wild type (mice [1]; 0.3 mg/kg, i.p.): not significantly attenuated | Hypothermia in Adora3−/− mice vs wild type (mice [1]; 0.3 mg/kg, i.p.): attenuated but still present | Effect on Tb (mice [1]; [15]): dose-dependent (0.03–3 mg/kg, i.p.) hypothermia | Effect on physical activity (mice [1]; [15]): reduction in physical activity

SMILES: CCCn1c(=O)c2[nH]c(C3CCCC3)nc2n(CCC)c1=O [DPCPX]
Ki (mouse A1AR [2]; ref Kreckler et al, 2006): 0.0015 µM | % inhibition at 10 µM, mouse A3AR (mouse A3AR [3]; 10 µM, ref Kreckler et al, 2006): 0% | Ki (mouse A2AAR [4]; ref Kreckler et al): 0.598 µM

SMILES: COc1ccc(CN(CCN(C)C)c2ccccn2)cc1 [Pyrilamine, pyrilamine]
Effect of H1R antagonist on MRS5474-induced hypothermia (mice [1]; MRS5474 at dose selective for A3AR, inhibitor dosed 15 min before agonist): inhibited hypothermia | Effect of H1R antagonist on A1AR agonist-induced hypothermia (mice [1]; inhibitor dosed 15 min before agonist, Fig. S4A–D): did not block

SMILES: OC[C@H]1O[C@@H](n2cnc3c(NC4CCCC4)nc(Cl)nc32)[C@H](O)[C@@H]1O [CCPA, 2-chloro-N^6-cyclopentyladenosine]
Ki (mouse A1AR [2]; ref Alnouri et al, 2015): 0.00027 µM | Ki (mouse A3AR [3]; read-out: Ki, mouse A3AR, ref Alnouri et al, 2015): 0.016 µM

Ki (mouse A3AR [5]): 0.048 ± 0.011 µM | Ki (mouse A1AR [6]): 0.193 ± 0.038 µM
SMILES: CCNC(=O)[C@H]1O[C@@H](n2cnc3c(N)nc(NCCc4ccc(CCC(=O)O)cc4)nc32)[C@H](O)[C@@H]1O [CGS21680]

SMILES: CNC(=O)[C@H]1O[C@@H](n2cnc3c(NCc4cccc(I)c4)nc(Cl)nc32)[C@H](O)[C@@H]1O [Cl-IB-MECA, 2-chloro-N6-(3-iodobenzyl)adenosine-5'-N-methylcarboxamide]
Ki (mouse A2AAR [4]; ref Ge et al): ~10 µM

SMILES: OC[C@H]1O[C@@H](n2cnc3c(NC4CCCCC4)ncnc32)[C@H](O)[C@@H]1O [CHA, N^6-cyclohexyladenosine]
Hypothermia in Adora1−/− mice vs wild type (mice [1]; 0.05 mg/kg, i.p.): attenuated | Hypothermia in Adora1−/−;Adora3−/− double knockout mice (mice [1]; 0.05 mg/kg, i.p.): completely lost | Hypothermia in Adora3−/− mice vs wild type (mice [1]; 0.05 mg/kg, i.p.): attenuated | Effect on Tb (mice [1]; [16]): drop in Tb | Effect on duration of hypothermia (mice [1]; [16]): increase in duration of hypothermia | Effect on physical activity (mice [1]; [16]): reduced physical activity | Ki (mouse A1AR [6]): 0.00215 ± 0.00037 µM

Ki (mouse A3AR [5]; read-out: Ki, mouse A3AR, current results, ±SEM): 2.41 ± 0.325 µM | Ki (mouse A1AR [6]; read-out: Ki, mouse A1AR, current results, ±SEM): 0.0002 ± 1e-05 µM
SMILES: O[C@@H]1[C@H](O)[C@@H](CCl)O[C@H]1n1cnc2c(NC3CC4CCC3C4)ncnc21 (mixture of isomers) [Cl-ENBA, (±)-5'-chloro-5'-deoxy-N^6-endo-norbornyladenosine]
Effect of i.c.v. dosing on Tb in Adora1−/− mice (mice [1]; 15 µg/mouse, i.c.v.): greatly diminished | Hypothermia in mast cell-deficient Kit W-sh/W-sh mice (mice [1]; 1 mg/kg, i.p.): largely intact | Hypothermia in Adora1−/− mice vs wild type (mice [1]; 3 mg/kg, i.p.): largely abolished | Hypothermia in Adora1−/−;Adora3−/− mice (mice [1]; 3 mg/kg, i.p.): completely lost | Hypothermia in Adora3−/− mice vs wild type (mice [1]; 3 mg/kg, i.p.): remained present | Hypothermia in mast cell-deficient Kit W-sh/W-sh mice (mice [1]; 3 mg/kg, i.p.): significantly attenuated | Hypothermia after pretreatment with raclopride (mice [1]; [17]): not affected | Effect on Tb (mice [1]; [18]): dose-dependent hypothermia | Effect on physical activity (mice [1]; [18]): hypoactivity | Ki (Human A2AAR [7]; ref Franchetti et al, 2009): 1.34 µM | Ki (Human A3AR [8]): 1.29 µM | Environmental temperature preference in thermal gradient (mice [9]; Adora3−/− mice, 3 mg/kg, i.p.): modest preference for a cooler place | Time of TEE nadir (mice [10]; Adora3−/− mice, 3 mg/kg): ~ 50 min | Time of Tb nadir (mice [10]; Adora3−/− mice, 3 mg/kg): ~ 100 min | Effect on metabolic rate (total energy expenditure) (mice [10]; [19]): reduced metabolic rate | Effect on physical activity (mice [10]; [19]): reduced | Anti-nociceptive effect (mouse): anti-nociceptive

SMILES: Nc1ncnc2c1ncn2[C@@H]1O[C@H](COP(=O)(O)O)[C@@H](O)[C@H]1O [AMP, adenosine 5'-monophosphate]
Hypothermia from i.c.v. dosing in Adora1−/− mice (mice [1]; 100 µg/mouse (~3.3 mg/kg), i.c.v.): not attenuated | Hypothermia in Adora1−/− mice (mice [1]; 100 mg/kg, i.p.): intact | Hypothermia in Adora1−/−;Adora3−/− double knockout mice (mice [1]; 100 mg/kg, i.p.): intact | Hypothermia in Adora3−/− mice (mice [1]; 100 mg/kg, i.p.): intact | Hypothermia in Kit W-sh/W-sh mice (mice [1]; 100 mg/kg, i.p.): partially intact | Hypothermia after pretreatment with raclopride (mice [1]; AMP 100 mg/kg, i.p., raclopride 2 mg/kg, data not shown): did not block | Hypothermia after pretreatment with pyrilamine (mice [1]; Adora1−/− mice, AMP 100 mg/kg, i.p., pyrilamine 10 mg/kg, data not shown): did not ablate | Effect on Tb, i.c.v. infusion (mice [1]; [20]): drop in Tb that was comparable to a 30-fold larger (100 mg/kg) systemic dose | Torpor induction by large doses [11]: induce torpor | Ambient temperature preference (mice [9]; 100 mg/kg, i.p., not shown): did not observe a clear change | Activity in thermal gradient (mice [9]; [20]): without a significant drop in activity | Activity in thermal gradient (mice [9]; C57BL/6J mice, 300 mg/kg, i.p.): became immobile | Position in thermal gradient (mice [9]; C57BL/6J mice, 300 mg/kg, i.p.): moved to a cooler region | Effect on metabolic rate (total energy expenditure) (mice [10]; C57BL/6J mice, 100 mg/kg): drop in metabolic rate that preceded the hypothermia | Time of TEE nadir (mice [10]; C57BL/6J mice, 100 mg/kg): ~ 40 min | Time of Tb nadir (mice [10]; C57BL/6J mice, 100 mg/kg): ~ 60 min

SMILES: O[C@@H]1[C@@H]2C[C@@H]2C(n2cnc3c(NC(C4CC4)C4CC4)nc(Cl)nc32)[C@@H]1O (stereo partly drawn) [MRS5474, (1R,2R,3S,5S)-4-(2-chloro-6-((dicyclopropylmethyl)amino)-9H-purin-9-yl)bicyclo[3.1.0]hexane-2,3-diol]
Receptor mediating hypothermia (Adora1−/− and Adora3−/− mice) (mice [1]; 3 mg/kg, i.p.): via A3AR, without a clear contribution from A1AR | Hypothermia after pretreatment with raclopride (mice [1]; [17]): not inhibited | Effect on Tb (mice [1]; mice, doses in Fig. S2A,B): dose-dependent hypothermia | Effect on physical activity (mice [1]; mice, doses in Fig. S2A,B and data not shown): hypoactivity | Ki (Human A2AAR [7]; ref Tosh et al, 2012b): 3.95 µM

SMILES: CNC(=O)[C@H]1O[C@@H](n2cnc3c(NCc4cccc(I)c4)ncnc32)[C@H](O)[C@@H]1O [IB-MECA]
Ki (mouse A2AAR [4]; ref Ge et al): ~1 µM

Ki (Human A2AAR [12]): 3.78 ± 0.89 µM | inhibition at 10 µM (mouse A2AAR [13]): 33 ± 2% | Ki (mouse A3AR [5]): 3.11 ± 0.183 µM | Ki (Human A1AR): 0.00792 ± 0.00155 µM | Ki (Human A3AR [14]): 0.246 ± 0.021 µM | Ki (mouse A1AR [6]): 0.00108 ± 4e-05 µM | Selectivity for binding to mouse A1AR over A3AR (mouse A1AR [6]; from Table 1 Ki values): ~ 3000 fold
SMILES: O=S(=O)(O)c1ccc(Nc2ncnc3c2ncn3[C@@H]2O[C@H](CO)[C@@H](O)[C@H]2O)cc1 [SPA, N^6-(p-sulfo-phenyl)adenosine]
